In ChEMBL document CHEMBL4190382, “Targeting lysine specific demethylase 4A (KDM4A) tandem TUDOR domain - A fragment based approach” (Bioorg Med Chem Lett, 2018):
Positions count from the first letter of the chain named. pEC50: −log10 of the molar value. Activity calls are given as the source filed them. The rule behind the calls is not given here.

What was measured:
TP53-binding protein 1 = TP53-binding protein 1 (Homo sapiens, UniProt Q12888); experiment: Binding affinity to 6His-tagged and human 53BP1 tandem TUDOR domain (1488 to 1611 residues) expressed in Escherichia coli BL21(DE3)-T1R by ITC method
Chain of TP53-binding protein 1 (Q12888 whole entry, the tested form may be a part): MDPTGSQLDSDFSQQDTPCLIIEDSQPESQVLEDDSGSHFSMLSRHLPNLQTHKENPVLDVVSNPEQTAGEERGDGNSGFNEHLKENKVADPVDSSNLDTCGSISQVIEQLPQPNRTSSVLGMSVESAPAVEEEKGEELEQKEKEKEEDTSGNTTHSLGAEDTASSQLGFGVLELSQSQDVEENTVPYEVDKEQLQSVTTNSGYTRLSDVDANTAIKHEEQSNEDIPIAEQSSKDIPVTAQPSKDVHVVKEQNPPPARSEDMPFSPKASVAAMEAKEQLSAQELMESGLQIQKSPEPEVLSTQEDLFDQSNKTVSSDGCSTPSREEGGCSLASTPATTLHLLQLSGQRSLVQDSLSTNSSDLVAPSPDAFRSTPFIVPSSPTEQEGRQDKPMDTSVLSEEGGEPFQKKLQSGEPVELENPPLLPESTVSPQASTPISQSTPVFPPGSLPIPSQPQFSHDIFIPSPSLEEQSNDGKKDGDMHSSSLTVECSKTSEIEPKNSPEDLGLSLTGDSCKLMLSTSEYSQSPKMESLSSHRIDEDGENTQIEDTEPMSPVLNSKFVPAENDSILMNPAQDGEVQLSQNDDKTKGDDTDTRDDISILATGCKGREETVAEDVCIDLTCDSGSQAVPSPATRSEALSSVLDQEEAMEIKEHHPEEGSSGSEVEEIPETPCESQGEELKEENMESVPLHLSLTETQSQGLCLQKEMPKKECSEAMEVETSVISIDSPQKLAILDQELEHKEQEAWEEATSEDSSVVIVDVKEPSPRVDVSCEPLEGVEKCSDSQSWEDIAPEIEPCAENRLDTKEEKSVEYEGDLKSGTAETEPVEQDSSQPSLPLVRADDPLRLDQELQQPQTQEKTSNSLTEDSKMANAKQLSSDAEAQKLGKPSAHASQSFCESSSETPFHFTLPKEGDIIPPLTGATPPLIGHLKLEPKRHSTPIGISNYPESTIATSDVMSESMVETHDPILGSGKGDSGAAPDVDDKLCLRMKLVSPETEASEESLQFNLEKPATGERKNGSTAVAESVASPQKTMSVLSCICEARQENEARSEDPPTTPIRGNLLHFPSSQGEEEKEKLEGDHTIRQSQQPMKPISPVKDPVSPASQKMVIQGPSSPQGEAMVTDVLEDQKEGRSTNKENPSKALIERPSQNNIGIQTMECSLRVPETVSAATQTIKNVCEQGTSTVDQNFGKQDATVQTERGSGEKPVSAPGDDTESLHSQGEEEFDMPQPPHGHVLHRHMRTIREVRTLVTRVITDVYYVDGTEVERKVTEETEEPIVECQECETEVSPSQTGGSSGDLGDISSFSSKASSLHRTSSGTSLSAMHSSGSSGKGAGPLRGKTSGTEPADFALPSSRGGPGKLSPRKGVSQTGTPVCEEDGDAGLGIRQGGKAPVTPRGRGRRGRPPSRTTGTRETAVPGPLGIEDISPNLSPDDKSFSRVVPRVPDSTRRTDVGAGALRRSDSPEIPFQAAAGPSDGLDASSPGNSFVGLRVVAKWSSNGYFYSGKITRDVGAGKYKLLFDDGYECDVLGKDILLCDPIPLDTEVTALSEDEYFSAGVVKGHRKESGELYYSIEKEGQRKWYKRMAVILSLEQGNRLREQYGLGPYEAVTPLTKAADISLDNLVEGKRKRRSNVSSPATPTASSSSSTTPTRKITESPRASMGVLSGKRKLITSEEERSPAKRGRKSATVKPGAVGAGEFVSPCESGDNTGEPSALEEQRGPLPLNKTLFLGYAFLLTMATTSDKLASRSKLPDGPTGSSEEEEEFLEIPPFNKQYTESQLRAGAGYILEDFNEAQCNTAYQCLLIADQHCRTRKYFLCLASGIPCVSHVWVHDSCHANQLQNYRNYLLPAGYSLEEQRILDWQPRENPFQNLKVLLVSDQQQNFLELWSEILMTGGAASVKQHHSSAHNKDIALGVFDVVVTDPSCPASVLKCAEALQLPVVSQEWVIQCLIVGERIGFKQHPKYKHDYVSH

[1] = tested on: T1, Lysine-specific demethylase 4A (Homo sapiens), O75164 [W967A]; experiment: Binding affinity to thrombin cleavable N-terminal 6His tagged and 13C-IVLM labeled human KDM4A tandem TUDOR domain (897 to 1011 residues) W967A mutant expressed in Escherichia coli BL21(DE3)-T1R by ITC method
T1 sequence (whole entry): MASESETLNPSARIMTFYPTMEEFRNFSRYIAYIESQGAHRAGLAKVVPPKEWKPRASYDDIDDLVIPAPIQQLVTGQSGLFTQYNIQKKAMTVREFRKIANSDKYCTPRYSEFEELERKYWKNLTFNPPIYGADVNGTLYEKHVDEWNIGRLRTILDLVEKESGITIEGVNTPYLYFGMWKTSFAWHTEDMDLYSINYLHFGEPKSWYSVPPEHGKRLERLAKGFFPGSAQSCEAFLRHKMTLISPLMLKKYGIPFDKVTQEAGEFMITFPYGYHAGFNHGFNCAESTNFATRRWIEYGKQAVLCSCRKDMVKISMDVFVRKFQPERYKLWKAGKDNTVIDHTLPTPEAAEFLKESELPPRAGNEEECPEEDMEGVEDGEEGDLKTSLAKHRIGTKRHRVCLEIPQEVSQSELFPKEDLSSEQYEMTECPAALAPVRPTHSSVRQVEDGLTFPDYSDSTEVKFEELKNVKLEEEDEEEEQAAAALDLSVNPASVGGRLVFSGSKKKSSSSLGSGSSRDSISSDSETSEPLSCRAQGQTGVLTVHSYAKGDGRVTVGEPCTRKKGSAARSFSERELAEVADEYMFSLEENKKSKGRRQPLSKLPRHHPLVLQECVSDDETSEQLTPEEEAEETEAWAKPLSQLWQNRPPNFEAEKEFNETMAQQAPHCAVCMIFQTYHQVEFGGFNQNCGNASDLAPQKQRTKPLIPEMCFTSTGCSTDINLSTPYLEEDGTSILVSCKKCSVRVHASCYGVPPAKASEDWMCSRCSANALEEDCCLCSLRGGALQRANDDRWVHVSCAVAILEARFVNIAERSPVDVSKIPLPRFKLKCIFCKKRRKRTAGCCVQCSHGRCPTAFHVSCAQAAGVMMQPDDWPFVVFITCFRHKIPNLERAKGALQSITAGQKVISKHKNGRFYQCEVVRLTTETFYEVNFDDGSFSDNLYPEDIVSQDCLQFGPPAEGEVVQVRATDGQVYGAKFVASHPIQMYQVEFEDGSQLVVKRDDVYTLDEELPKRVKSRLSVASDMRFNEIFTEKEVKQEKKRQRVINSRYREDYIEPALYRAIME

[2] = biological target: T2, Lysine-specific demethylase 4A (Homo sapiens) (UniProt O75164); experiment: (§1) Inhibition of NanoLuc-KDM4A-TUDOR domain (unknown origin) binding to Histone H3.3-HaloTag expressed in 293T cells incubated for 18 hrs by Nano-BRET based target engagement assay; assay type: cell-based
T2 sequence (whole entry): T1 sequence (whole entry) with A967W

[3] = biological target: T3, Lysine-specific demethylase 4A (Homo sapiens, UniProt O75164); experiment: as §1; assay type: cell-based
T3 sequence (O75164 whole entry): T1 sequence (whole entry) with A967W

For `CN(C)C[C@H]1C2CCC(c3ccccc3)(C2)[C@H]1O` (some centres undefined), the Kd (TP53-binding protein 1) was “Not Active”, the Activity [1] was “inactive” and the inhibition [2] was “Dose-dependent effect”. The pEC50 [3] was 3.98.
